Measured values: PMC12612973, “Inhibition of Human Amylin Aggregation: In Silico and In Vitro Studies” (ACS Omega, 2025)
Values joined by “and” are separate entries in the source; they are usually repeats but may differ in a detail not shown here. Identical values can stand only once.

Legend:
human amylin (hIAPP) [1] = target: T1, human amylin (hIAPP) (Homo sapiens, UniProt P10997); assay: Dynamic light scattering (DLS) assay of amylin aggregation; type: biochemical; conditions: 36 h incubation; for inhibition at 10 µM: compound 10 μM, amylin 15 μM, 3 trials, read-out: DLS inhibition % (mean ± SEM)
T1 construct: purchased Bachem USA
T1 sequence (P10997 34-70 limits assumed): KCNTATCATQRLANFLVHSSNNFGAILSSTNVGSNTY
Method: (§1) A stock solution of amylin (1 mM) (purchased from Bachem USA), peptide sequence: […] amide (with disulfide bond between Cys2 and Cys7), was prepared in 100% hexafluoroisopropyl alcohol (HFIP) (purchased from Sigma-Aldrich) and stored at −20 °C. , Aliquots of amylin peptide were filtered through a 0.22 μm filter from the stock solution and freeze-dried. For kinetic experiments, 15 μM of amylin was prepared in 50 mM Tris-HCl buffer (pH 7.4), as investigated in previous studies by Chaari et al., , Samples of amylin were prepared in the presence or absence of inhibitors. Each compound was dissolved in DMSO and further diluted with the buffer used to solubilize the amylin. The final mixture contained 15 μM amylin, 10 μM of the test compound, 2% DMSO or 15 μM amylin, and 2% DMSO without the compound (negative control). Also 15 μM amylin, 10 μM of oleuropein aglycone and 2% DMSO was used as a positive control. The prepared solutions were incubated under physiological conditions (pH 7.4 and 37 °C) for amylin aggregation. Samples were incubated for 36 h to test for amylin aggregation, and measurements were conducted at different time points.
DLS (Zetasizer, Malvern) was used at a wavelength of 633 nm to measure the average diffusion coefficient distribution of amylin particles and the aggregation percentage. Samples were diluted 10-fold, and 50 μL was placed into a 96-well plate. The total light scattering intensity at a 90° angle was collected using a 10 s averaging acquisition time. Particle translational diffusion coefficients were calculated from autocorrelated light intensity data (usually 30–40 points) and converted to the hydrodynamic radius (R h) using the Stokes–Einstein equation. A distribution plot of intensity versus R h was calculated using the Sedfit 9.3 analysis software, and intensity-weighted mean R h values were obtained from each peak.

human amylin (hIAPP) [2] = target: T1, human amylin (hIAPP); assay: Thioflavin T (ThT) fluorescence assay of amylin aggregation; type: biochemical; conditions: for inhibition at 10 µM: read-out: ThT inhibition % (mean ± SEM), compound 10 μM, amylin 15 μM, 36 h incubation, 3 trials; for ThT inhibition % (mean ± SEM): compound 10 μM, amylin 15 μM, 36 h incubation, 3 trials
Method: as §1
Amylin aggregation was monitored by characteristic changes in Thioflavin T (ThT) fluorescence intensity. A ThT stock solution (15 μM) was prepared in deionized water at pH 7.4. The amylin samples were mixed with the ThT solution and allowed to incubate. ThT fluorescence was measured using the PerkinElmer model LS 55 fluorescence spectrophotometer (PerkinElmer, USA), with an excitation wavelength of 440 nm and an emission wavelength of 480 nm. ,− The emission and excitation slits were set to 5 nm, and a 1 cm cuvette was used for all experiments. Nonspecific background fluorescence was subtracted from the samples using appropriate blanks in the absence of proteins. Each experiment was performed in triplicate.

Aβ = test system: Aβ; design: method as in Panek et al.; conditions: ref Panek et al.; cited from earlier work
human amylin (hIAPP) [3] = target: T1, human amylin (hIAPP); assay: Thioflavin T (ThT) fluorescence assay of amylin aggregation; type: biochemical; conditions: read-out: IC50 of amylin aggregation inhibition
human amylin (hIAPP) [4] = target: T1, human amylin (hIAPP); assay: Kinetic analysis of amylin aggregation (ThT, two-step autocatalytic aggregation model); type: biochemical; conditions: mean ± S.D.; for t 0 (time point when the aggregation starts): 10% of highest ThT fluorescence; for t 1/2 (aggregation halftime): 50% of highest ThT fluorescence; for t 1 (aggregation endpoint): 90% of highest ThT fluorescence; for k / k e (elongation constant) / k n (nucleation constant) / ρ (ratio of kn to k): ThT data, autocatalytic aggregation model
Method: Kinetic analysis was performed according to the model of autocatalytic aggregation. According to Sabaté et al., aggregation is a two-step process, comprising nucleation (described by the k n constant) and fibrillation phases (represented by the k e constant). Two constants (k n and k e) are calculated using the eq : 5 f=ρ{e^[(1+ρ)kt]−1}/{1+ρe^[(1+ρ)kt]} where k = k e a (where a represents the initial concentration of the aggregating peptide), f stands for a fraction of the fibrillar form in the system, and ρ denotes the dimensionless ratio of k n to k. The parameters k and ρ were calculated first, then k n and k e.
Data were normalized as a fraction of the highest fluorescence from the three trials and fitted into the model of autocatalytic aggregation. The same procedure was repeated for the remaining trials. The second calculation aimed to find the time parameters of the aggregation process: t 0 (time point when the aggregation starts), t 1/2 (aggregation halftime), and t 1 (aggregation endpoint). t 0, t 1/2, and t 1 were calculated as 10%, 50%, and 90% of the highest fluorescence measurements from the three trials, respectively. All calculations were performed using GraphPad Prism 9.5.1, Statistica 13.3.721.1, and Microsoft Excel 2304.

Pancreatic INS-1E cells = assay: MTT cytotoxicity assay of amylin aggregates aged with or without inhibitors; type: cell-based
Method: In this study, we utilized Pancreatic INS-1E cells (Department of Cell Physiology and Metabolism, University Medical Center, Switzerland) due to their close physiological similarity to native β-cells, making them highly relevant to our experimental objectives. Pancreatic INS-1E cells were grown in RPMI 1640 medium, supplemented with 2 mM glutamine, 5% fetal calf serum, 10 mM HEPES (pH 7.4), 1 mM sodium pyruvate, 50 μM 2-mercaptoethanol, 100 units/mL penicillin, and 0.1 mg/mL streptomycin. The culturing environment was maintained at 37 °C, 5% CO2, pH 7.4.
The toxicity of human amylin aggregates in the presence or absence of different compounds in the presence of 2% DMSO was assessed by the 3-(4,5-dimethylthiazol-2-yl)-2,5-diphenyltetrazolium bromide (MTT) reduction assay. The cells were cultured and then seeded into 96-well plates and grown for 24 h prior to exposure to different intermediates of amylin or a mixture of amylin with the MTDLs. The final amylin concentration within the culture medium was 5 μM. Cell viability was expressed as the percentage of MTT reduction, using cells treated with the same buffer volume as a reference (100% MTT reduction). The values (averages ± S.D.) were obtained from three independent experiments.

| SMILES | inhibition at 10 µM (human amylin (hIAPP) [1]) | inhibition at 10 µM (human amylin (hIAPP) [2]) | inhibition of Aβ aggregation in the ThT assay (Aβ) | IC50 (human amylin (hIAPP) [3]) | t 0 (time point when the aggregation starts) (human amylin (hIAPP) [4]) | t 1/2 (aggregation halftime) (human amylin (hIAPP) [4]) | t 1 (aggregation endpoint) (human amylin (hIAPP) [4]) | k (human amylin (hIAPP) [4]) | k e (elongation constant) (human amylin (hIAPP) [4]) | k n (nucleation constant) (human amylin (hIAPP) [4]) | ρ (ratio of kn to k) (human amylin (hIAPP) [4]) | ThT inhibition % (mean ± SEM) (human amylin (hIAPP) [2]) | average particle size of amylin by DLS (human amylin (hIAPP) [1]; amylin + compound) | cell viability difference versus the sample with amylin fibrils (Pancreatic INS-1E cells; INS-1E cells 24 h, amylin aggregates aged 36 h with 2.92 μM compound 18 or 3.31 μM compound 21) | effect on INS-1E cell viability in presence of amylin (Pancreatic INS-1E cells; INS-1E cells cultured with the MTDLs) |
| --- | --- | --- | --- | --- | --- | --- | --- | --- | --- | --- | --- | --- | --- | --- | --- |
| COc1ccc(CNCC(O)CCN2CCN(Cc3ccccc3)CC2)cc1 (stereo not shown) [Compound 10] | 27.8 ± 3% | 31.1 ± 0.9% | – | – | – | – | – | – | – | – | – | – | – | – | – |
| OC(CCN1CCN(C(c2ccccc2)c2ccccc2)CC1)CNCc1ccccc1 (stereo not shown) [Compound 11] | 19 ± 1.8% | 20.8 ± 0.8% | – | – | – | – | – | – | – | – | – | – | – | – | – |
| COc1ccc(CNCC(O)CCN2CCN(C(c3ccccc3)c3ccccc3)CC2)cc1 (stereo not shown) [Compound 12] | 20.7 ± 2% | 11.9 ± 0.7% | – | – | – | – | – | – | – | – | – | – | – | – | – |
| CC(C)(C)c1cccc(CNCC(O)CCN2CCN(C(c3ccccc3)c3ccccc3)CC2)c1 (stereo not shown) [Compound 13] | 86.7 ± 4.5% | ~75% | 81.4% and ~82% | 3.75 µM | 12.49 ± 0.19 h | 20.41 ± 0.20 h | 28.41 ± 0.23 h | 0.2729 ± 0.0025 h^–1 | 18195 ± 165 M^–1h^–1 | 0.0011 ± 0.0001 h^–1 | 0.0038 ± 0.0002 | 74.7 ± 0.7% | – | – | – |
| COc1ccc(CNCC(O)CCN2CCN(C(c3ccc(F)cc3)c3ccc(F)cc3)CC2)cc1 (stereo not shown) [Compound 14] | 7.8 ± 0.5% | 5 ± 4.4% | – | – | – | – | – | – | – | – | – | – | – | – | – |
| OC(CNCc1ccccc1)CNCC(c1ccccc1)c1ccccc1 (stereo not shown) [Compound 15] | 25 ± 2.5% | 37.4 ± 0.4% | – | – | – | – | – | – | – | – | – | – | – | – | – |
| OC(CNCCC(c1ccccc1)c1ccccc1)CNCc1ccccc1 (stereo not shown) [Compound 16] | 77.9 ± 6% | 58.8 ± 0.7% | – | 3.1 µM | 11.03 ± 0.22 h | 18.22 ± 0.28 h | 25.52 ± 0.37 h | 0.2996 ± 0.0048 h^–1 | 19973 ± 320 M^–1h^–1 | 0.0012 ± 0.0001 h^–1 | 0.0042 ± 0.0003 | – | 10 nm | – | – |
| CC(C)(C)c1cccc(CNCC(O)CNCC(c2ccccc2)c2ccccc2)c1 (stereo not shown) [Compound 17] | 99 ± 6.5% | > 88% | – | 3.65 µM | 13.13 ± 1.09 h | 21.25 ± 0.20 h | 29.48 ± 1.02 h | 0.2687 ± 0.0374 h^–1 | 17913 ± 2489 M^–1h^–1 | 0.0010 ± 0.0006 h^–1 | 0.0040 ± 0.0028 | 88.1 ± 0.9% | – | – | – |
| OC(CCNCC(c1ccccc1)c1ccccc1)CNCc1ccccc1 (stereo not shown) [Compound 19] | 27.5 ± 3% | 33.7 ± 1.1% | – | – | – | – | – | – | – | – | – | – | – | – | – |
| OC(CCNCCC(c1ccccc1)c1ccccc1)CNCc1ccccc1 (stereo not shown) [Compound 20] | 20.4 ± 2.5% | 12.6 ± 0.4% | – | – | – | – | – | – | – | – | – | – | – | – | – |
| CC(C)(C)c1cccc(CNCC(O)CCNCC(c2ccccc2)c2ccccc2)c1 (stereo not shown) [Compound 21] | 99.2 ± 6% | > 88% | – | 3.53 µM | 9.54 ± 0.29 h | 18.66 ± 0.56 h | 28.19 ± 1.42 h | 0.2273 ± 0.0221 h^–1 | 15155 M^–1h^–1 and 15155 ± 1477 M^–1h^–1 | 0.003 h^–1 and 0.0032 ± 0.0007 h^–1 | 0.0145 ± 0.0044 | 90.8 ± 1.4% | – | approximately 30 % points | retained cell viability |
